From patent US11207312B2, “Metallo-beta-lactamase inhibitors and methods of use thereof” (priority 2017, dated 2021)

Legend:
[1] = target: NDM-1 (Klebsiella pneumoniae, UniProt C7C422); test: biochemical; assay type: biochemical; conditions: CCF2-FA fluorescence assay, 2 hours at 25° C.
Procedure, shortened: (§1)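 In 100 mM phosphate pH 7 containing Tween-20 and ZnSO4, NDM-1 (1 pM), IMP-1 (2 pM) or VIM-1 (30 pM) hydrolysed 1.25 μM CCF2-FA over 2 hours at 25° C with inhibitor present. Readout was 405/460 nm fluorescence.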

[2] = target: IMP-1 (Serratia marcescens, UniProt P52699); test: biochemical; conditions: CCF2-FA fluorescence assay, 2 hours at 25° C.; read-out: IMP1 IC50
Procedure, shortened: as §1

[3] = target: VIM-1 (Pseudomonas aeruginosa (strain ATCC 15692 / DSM 22644 / CIP 104116 / JCM 14847 / LMG 12228 / 1C / PRS 101 / PAO1), UniProt A0A0F7KYQ8); test: biochemical; conditions: CCF2-FA fluorescence assay, 2 hours at 25° C.; read-out: VIM1 IC50
Procedure, shortened: as §1

[4] = target: VIM-2 (Escherichia coli, UniProt Q5U7L7); test: biochemical; conditions: CCF2-FA fluorescence assay; read-out: VIM2 IC50
[5] = system: Escherichia coli expressing NDM-1 (CLB30016); assay type: cell-based; conditions: with imipenem 1 μg/ml; 95% inhibition of bacterial growth
Procedure, shortened: (§2)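 Each strain, diluted 1:100 from saline suspension into 1.1× CAMHB, was combined with imipenem held at 1 μg/ml and graded inhibitor. Growth after 22–24 h at 35 °C was measured by absorbance, and the lowest concentration achieving 95% inhibition defined MITC95.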

[6] = system: Klebsiella pneumoniae expressing VIM-1 (IHMA599644); assay type: cell-based; conditions: with imipenem 1 μg/ml; 95% inhibition of bacterial growth
Procedure, shortened: as §2

[7] = system: Serratia marcescens expressing IMP-1 (CL5741); assay type: cell-based; conditions: with imipenem 1 μg/ml; 95% inhibition of bacterial growth
Procedure, shortened: as §2

[8] = system: P. aeruginosa MB9798 (efflux+, IMP-1 plasmid); conditions: for MB9798 MITC95 P. aeruginosa uM Efflux WT: efflux + (MB9798) strain, imipenem at 2 μg/mL, in the presence of a class A, C, D serine β-lactamase inhibitor closely related to relebactam; for Efflux ratio: fold difference between efflux+ (MB9798) and efflux− (MB9799) strains
Procedure, shortened: (§3)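 PAO1-derived isogenic pair (oprD+, inducible AmpC), efflux+ MB5919 or efflux− MB5890 parent, carrying an electroporated IMP-1 plasmid from a clinical isolate. Microbroth MIC with fixed imipenem and/or ceftazidime (usually CLSI breakpoint) plus fixed class A/C inhibitor; MBL inhibitor serially titrated, concentration restoring susceptibility recorded.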

[9] = system: P. aeruginosa MB9799 (efflux-, IMP-1 plasmid); assay type: cell-based, Pseudomonas aeruginosa; conditions: efflux − (MB9799) strain; imipenem at 2 μg/mL; in the presence of a class A, C, D serine β-lactamase inhibitor closely related to relebactam
Procedure, shortened: as §3

Chain of NDM-1 (C7C422 whole entry, looked up, species assumed): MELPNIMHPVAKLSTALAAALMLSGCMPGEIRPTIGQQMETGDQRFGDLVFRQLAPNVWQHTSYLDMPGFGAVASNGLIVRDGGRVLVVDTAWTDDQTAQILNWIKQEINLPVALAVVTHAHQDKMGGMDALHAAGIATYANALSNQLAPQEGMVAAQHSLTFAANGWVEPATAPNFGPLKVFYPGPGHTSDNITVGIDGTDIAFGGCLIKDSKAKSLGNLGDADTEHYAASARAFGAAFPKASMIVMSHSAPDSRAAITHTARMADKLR
Chain of IMP-1 (P52699 whole entry, looked up, species assumed): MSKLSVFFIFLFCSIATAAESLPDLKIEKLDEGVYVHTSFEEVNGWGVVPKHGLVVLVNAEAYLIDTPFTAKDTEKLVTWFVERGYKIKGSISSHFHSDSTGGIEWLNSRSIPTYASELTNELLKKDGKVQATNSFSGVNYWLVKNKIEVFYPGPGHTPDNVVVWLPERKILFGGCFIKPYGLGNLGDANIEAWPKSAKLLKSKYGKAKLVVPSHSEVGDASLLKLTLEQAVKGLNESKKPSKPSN

NC[C@@H](O)CNS(=O)(=O)c1ccc(N2CCC[C@@H](CN)C2)c(-c2nnn[nH]2)c1S(N)(=O)=O [Example 38, N1-((R)-3-amino-2-hydroxypropyl)-4-((S)-3-(aminomethyl)piperidin-1-yl)-3-(1H-tetrazol-5-yl)benzene-1,2-disulfonamide]
IC50 [1]: 6.3 nM
IC50 [2]: 20.6 nM
IC50 [3]: 0.67 nM
IC50 [4]: 2.11 nM
CLB30016 E. coli MITC95 NDM [5]: 0.20 µM
IHMA599644 K. pneumoniae MITC95 VIM [6]: 0.78 µM
CL5741 S. marcescens MITC95 IMP [7]: 0.78 µM
MB9798 MITC95 P. aeruginosa uM Efflux WT [8]: 3.13 µM
Efflux ratio [8]: 4.00
MB9799 MITC95 P. aeruginosa uM Efflux Mutant [9]: 0.78 µM

NC[C@@H](O)CNS(=O)(=O)c1ccc(N2CCC[C@H](CN)C2)c(-c2nnn[nH]2)c1S(N)(=O)=O [Example 39, N1-((R)-3-amino-2-hydroxypropyl)-4-((R)-3-(aminomethyl)piperidin-1-yl)-3-(1H-tetrazol-5-yl)benzene-1,2-disulfonamide]
IC50 [1]: 50.4 nM
IC50 [2]: 44.6 nM
IC50 [3]: 1.71 nM
IC50 [4]: 11.6 nM
CLB30016 E. coli MITC95 NDM [5]: 1.56 µM
IHMA599644 K. pneumoniae MITC95 VIM [6]: 1.56 µM
CL5741 S. marcescens MITC95 IMP [7]: 0.78 µM
MB9798 MITC95 P. aeruginosa uM Efflux WT [8]: 3.13 µM
Efflux ratio [8]: 2.00
MB9799 MITC95 P. aeruginosa uM Efflux Mutant [9]: 1.56 µM

NC[C@@H](O)CNS(=O)(=O)c1ccc(N2CCN(CCCO)CC2)c(-c2nnn[nH]2)c1S(N)(=O)=O [Example 40, (R)-N1-(3-amino-2-hydroxypropyl)-4-(4-(3-hydroxypropyl)piperazin-1-yl)-3-(1H-tetrazol-5-yl)benzene-1,2-disulfonamide]
IC50 [1]: 3.07 nM
IC50 [2]: 3.56 nM
IC50 [3]: 5.87 nM
IC50 [4]: 7.36 nM
CLB30016 E. coli MITC95 NDM [5]: 0.05 µM
IHMA599644 K. pneumoniae MITC95 VIM [6]: 0.78 µM
CL5741 S. marcescens MITC95 IMP [7]: 0.10 µM
MB9798 MITC95 P. aeruginosa uM Efflux WT [8]: 1.56 µM
Efflux ratio [8]: 2.00
MB9799 MITC95 P. aeruginosa uM Efflux Mutant [9]: 0.78 µM

NCCNS(=O)(=O)c1ccc(N2CCN(CCCO)CC2)c(-c2nnn[nH]2)c1S(N)(=O)=O [Example 41, N1-(2-aminoethyl)-4-(4-(3-hydroxypropyl)piperazin-1-yl)-3-(1H-tetrazol-5-yl)benzene-1,2-disulfonamide]
IC50 [1]: 5.98 nM
IC50 [2]: 6.04 nM
IC50 [3]: 11.5 nM
IC50 [4]: 14.8 nM
CLB30016 E. coli MITC95 NDM [5]: 0.10 µM
IHMA599644 K. pneumoniae MITC95 VIM [6]: 1.56 µM
CL5741 S. marcescens MITC95 IMP [7]: 0.10 µM
MB9798 MITC95 P. aeruginosa uM Efflux WT [8]: 1.56 µM
Efflux ratio [8]: 4.00
MB9799 MITC95 P. aeruginosa uM Efflux Mutant [9]: 0.39 µM

NC[C@@H](O)CNS(=O)(=O)c1ccc(N2CCC(CO)CC2)c(-c2nnn[nH]2)c1S(N)(=O)=O [Example 42, (R)-N1-(3-amino-2-hydroxypropyl)-4-(4-(hydroxymethyl)piperidin-1-yl)-3-(1H-tetrazol-5-yl)benzene-1,2-disulfonamide]
IC50 [1]: 0.45 nM
IC50 [2]: 0.47 nM
IC50 [3]: 0.16 nM
IC50 [4]: 0.71 nM
CLB30016 E. coli MITC95 NDM [5]: 3.13 µM
IHMA599644 K. pneumoniae MITC95 VIM [6]: 6.25 µM
CL5741 S. marcescens MITC95 IMP [7]: 3.13 µM
MB9798 MITC95 P. aeruginosa uM Efflux WT [8]: 1.56 µM
Efflux ratio [8]: 1.00
MB9799 MITC95 P. aeruginosa uM Efflux Mutant [9]: 1.56 µM

NCCNS(=O)(=O)c1ccc(N2CCC(CO)CC2)c(-c2nnn[nH]2)c1S(N)(=O)=O [Example 43, N1-(2-aminoethyl)-4-(4-(hydroxymethyl)piperidin-1-yl)-3-(1H-tetrazol-5-yl)benzene-1,2-disulfonamide]
IC50 [1]: 0.51 nM
IC50 [2]: 0.58 nM
IC50 [3]: 0.19 nM
IC50 [4]: 0.61 nM
CLB30016 E. coli MITC95 NDM [5]: 1.56 µM
IHMA599644 K. pneumoniae MITC95 VIM [6]: 6.25 µM
CL5741 S. marcescens MITC95 IMP [7]: 1.56 µM
MB9798 MITC95 P. aeruginosa uM Efflux WT [8]: 1.56 µM
Efflux ratio [8]: 1.00
MB9799 MITC95 P. aeruginosa uM Efflux Mutant [9]: 1.56 µM

NC[C@H](N)CNS(=O)(=O)c1ccc(N2CCC(CO)CC2)c(-c2nnn[nH]2)c1S(N)(=O)=O [Example 44, (S)-N1-(2,3-diaminopropyl)-4-(4-(hydroxymethyl)piperidin-1-yl)-3-(1H-tetrazol-5-yl)benzene-1,2-disulfonamide]
IC50 [1]: 0.36 nM
IC50 [2]: 0.56 nM
IC50 [3]: 0.06 nM
IC50 [4]: 0.63 nM
CLB30016 E. coli MITC95 NDM [5]: 3.13 µM
IHMA599644 K. pneumoniae MITC95 VIM [6]: 6.25 µM
CL5741 S. marcescens MITC95 IMP [7]: 3.13 µM
MB9798 MITC95 P. aeruginosa uM Efflux WT [8]: 3.13 µM
Efflux ratio [8]: 2.00
MB9799 MITC95 P. aeruginosa uM Efflux Mutant [9]: 1.56 µM

NCC(CN)NS(=O)(=O)c1ccc(N2CCC(CO)CC2)c(-c2nnn[nH]2)c1S(N)(=O)=O [Example 45, N1-(1,3-diaminopropan-2-yl)-4-(4-(hydroxymethyl)piperidin-1-yl)-3-(1H-tetrazol-5-yl)benzene-1,2-disulfonamide]
IC50 [1]: 0.27 nM
IC50 [2]: 0.52 nM
IC50 [3]: 0.23 nM
IC50 [4]: 0.74 nM
CLB30016 E. coli MITC95 NDM [5]: 1.56 µM
IHMA599644 K. pneumoniae MITC95 VIM [6]: 3.13 µM
CL5741 S. marcescens MITC95 IMP [7]: 3.13 µM
MB9798 MITC95 P. aeruginosa uM Efflux WT [8]: 1.56 µM
Efflux ratio [8]: 1.00
MB9799 MITC95 P. aeruginosa uM Efflux Mutant [9]: 1.56 µM

C[C@H](CN)NS(=O)(=O)c1ccc(N2CCC(CO)CC2)c(-c2nnn[nH]2)c1S(N)(=O)=O [Example 46, (R)-N1-(1-aminopropan-2-yl)-4-(4-(hydroxymethyl)piperidin-1-yl)-3-(1H-tetrazol-5-yl)benzene-1,2-disulfonamide]
IC50 [1]: 0.06 nM
IC50 [2]: 0.12 nM
IC50 [3]: 0.08 nM
IC50 [4]: 0.32 nM
CLB30016 E. coli MITC95 NDM [5]: 3.13 µM
IHMA599644 K. pneumoniae MITC95 VIM [6]: 6.25 µM
CL5741 S. marcescens MITC95 IMP [7]: 1.56 µM
MB9798 MITC95 P. aeruginosa uM Efflux WT [8]: 1.56 µM
Efflux ratio [8]: 1.00
MB9799 MITC95 P. aeruginosa uM Efflux Mutant [9]: 1.56 µM

NC[C@@H](O)CNS(=O)(=O)c1ccc(N2CCN(CCO)CC2)c(-c2nnn[nH]2)c1S(N)(=O)=O [Example 47, (R)-N1-(3-amino-2-hydroxypropyl)-4-(4-(2-hydroxyethyl)piper-azin-1-yl)-3-(1H-tetrazol-5-yl)benzene-1,2-disulfonamide]
IC50 [1]: 3.94 nM
IC50 [2]: 4.57 nM
IC50 [3]: 5.02 nM
IC50 [4]: 7.34 nM
CLB30016 E. coli MITC95 NDM [5]: 0.10 µM
IHMA599644 K. pneumoniae MITC95 VIM [6]: 0.78 µM
CL5741 S. marcescens MITC95 IMP [7]: 0.10 µM
MB9798 MITC95 P. aeruginosa uM Efflux WT [8]: 1.56 µM
Efflux ratio [8]: 2.00
MB9799 MITC95 P. aeruginosa uM Efflux Mutant [9]: 0.78 µM

NCCNS(=O)(=O)c1ccc(N2CCN(CCO)CC2)c(-c2nnn[nH]2)c1S(N)(=O)=O [Example 48, N1-(2-aminoethyl)-4-(4-(2-hydroxyethyl)piper-azin-1-yl)-3-(1H-tetrazol-5-yl)benzene-1,2-disulfonamide]
IC50 [1]: 1.52 nM
IC50 [2]: 5.59 nM
IC50 [3]: 7.23 nM
IC50 [4]: 15 nM
CLB30016 E. coli MITC95 NDM [5]: 0.05 µM
IHMA599644 K. pneumoniae MITC95 VIM [6]: 0.39 µM
CL5741 S. marcescens MITC95 IMP [7]: 0.05 µM
MB9798 MITC95 P. aeruginosa uM Efflux WT [8]: 1.56 µM
Efflux ratio [8]: 4.00
MB9799 MITC95 P. aeruginosa uM Efflux Mutant [9]: 0.39 µM

NC[C@H](N)CNS(=O)(=O)c1ccc(N2CCN(CCO)CC2)c(-c2nnn[nH]2)c1S(N)(=O)=O [Example 49, (S)-N1-(2,3-diaminopropyl)-4-(4-(2-hydroxyethyl)piper-azin-1-yl)-3-(1H-tetrazol-5-yl)benzene-1,2-disulfonamide]
IC50 [1]: 5.3 nM
IC50 [2]: 9.13 nM
IC50 [3]: 13.6 nM
IC50 [4]: 20.2 nM
CLB30016 E. coli MITC95 NDM [5]: 0.20 µM
IHMA599644 K. pneumoniae MITC95 VIM [6]: 1.56 µM
CL5741 S. marcescens MITC95 IMP [7]: 0.20 µM
MB9798 MITC95 P. aeruginosa uM Efflux WT [8]: 1.56 µM
Efflux ratio [8]: 1.00
MB9799 MITC95 P. aeruginosa uM Efflux Mutant [9]: 1.56 µM

CC(N)C1CCN(c2ccc(S(=O)(=O)NC[C@H](O)CN)c(S(N)(=O)=O)c2-c2nnn[nH]2)CC1 (stereo partly drawn) [Example 50, N1-((R)-3-amino-2-hydroxypropyl)-4-(4-(1-aminoethyl)piper-idin-1-yl)-3-(1H-tetrazol-5-yl)benzene-1,2-disulfonamide]
IC50 [1]: 4.14 nM
IC50 [2]: 2.11 nM
IC50 [3]: 0.15 nM
IC50 [4]: 4.12 nM
CLB30016 E. coli MITC95 NDM [5]: 0.39 µM
IHMA599644 K. pneumoniae MITC95 VIM [6]: 0.78 µM
CL5741 S. marcescens MITC95 IMP [7]: 0.78 µM
MB9798 MITC95 P. aeruginosa uM Efflux WT [8]: 0.78 µM
Efflux ratio [8]: 2.00
MB9799 MITC95 P. aeruginosa uM Efflux Mutant [9]: 0.39 µM
